Target: human SPR (Homo sapiens (Human), UniProt P35270)
Assay: Evaluation Example 2: Measurement of human SPR inhibitory activity (seven concentrations, sepiapterin absorbance at 420 nm)
Assay type: biochemical
Settings: Evaluation Example 2, seven concentrations 0.14 nM to 100 nM, 240 minutes at room temperature, read-out: IC50
Method in brief: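 His-tagged full-length human SPR (1-261) was expressed in E. coli and the tag removed. Enzyme at 150 ng/mL in 100 mM Tris-HCl pH 7.5/0.01% BSA was mixed with compound (0.14–100 nM, seven points), 120 μM sepiapterin and 160 μM NADPH, both as added-solution concentrations. After 240 min at room temperature, remaining sepiapterin was read at 420 nm to give percent inhibition.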

Sequence of human SPR (P35270 whole entry): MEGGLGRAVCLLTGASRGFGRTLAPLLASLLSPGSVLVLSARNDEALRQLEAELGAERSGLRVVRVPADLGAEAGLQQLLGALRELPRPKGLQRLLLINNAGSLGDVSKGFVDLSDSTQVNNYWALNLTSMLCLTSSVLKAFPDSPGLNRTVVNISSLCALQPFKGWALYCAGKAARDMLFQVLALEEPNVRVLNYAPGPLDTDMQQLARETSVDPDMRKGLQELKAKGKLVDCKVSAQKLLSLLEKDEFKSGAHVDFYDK

Row | SMILES | IC50 [nM]
1 | Cc1nn2c(O)c(C(=O)NC3CC3)c(=O)n(CC(C)C)c2c1/C=C/C(=O)N1CCOc2cnccc21 [Synthesis Example 675, (E)-N-Cyclopropyl-3-(3-(2,3-dihydro-1H-pyrido[3,4-b][1,4]oxazin-1-yl)-3-oxoprop-1-en-1-yl)-7-hydroxy-4-isobutyl-2-methyl-5-oxo-4,5-dihydropyrazolo[1,5-a]pyrimidine-6-carboxamide] | 0.99
2 | Cc1nn2c(O)c(C(=O)NC3CC3)c(=O)n(CC(C)C)c2c1/C=C/C(=O)N1CCOc2ncccc21 [Synthesis Example 676, (E)-N-Cyclopropyl-3-(3-(2,3-dihydro-1H-pyrido[2,3-b][1,4]oxazin-1-yl)-3-oxoprop-1-en-1-yl)-7-hydroxy-4-isobutyl-2-methyl-5-oxo-4,5-dihydropyrazolo[1,5-a]pyrimidine-6-carboxamide] | 0.91
3 | Cc1nn2c(O)c(C(=O)NC3CC3)c(=O)n(CC(C)C)c2c1/C=C/C(=O)N1CCC[C@H]1C(C)(C)O [Synthesis Example 677, (S,E)-N-Cyclopropyl-7-hydroxy-3-(3-(2-(2-hydroxypropan-2-yl)pyrrolidin-1-yl)-3-oxoprop-1-en-1-yl)-4-isobutyl-2-methyl-5-oxo-4,5-dihydropyrazolo[1,5-a]pyrimidine-6-carboxamide] | 0.95
4 | Cc1nn2c(O)c(C(=O)NC3CC3)c(=O)n(CC(C)C)c2c1/C=C/C(=O)N1CCCC12CCN(C(C)C)CC2 [Synthesis Example 678, (E)-N-Cyclopropyl-7-hydroxy-4-isobutyl-3-(3-(8-isopropyl-1,8-diazaspiro[4.5]decan-1-yl)-3-oxoprop-1-en-1-yl)-2-methyl-5-oxo-4,5-dihydropyrazolo[1,5-a]pyrimidine-6-carboxamide] | 1.17
5 | Cc1nn2c(O)c(C(=O)NC3CC3)c(=O)n(CC(C)C)c2c1/C=C/C(=O)N1CCO[C@H](C)C1 [Synthesis Example 679, (R,E)-N-Cyclopropyl-7-hydroxy-4-isobutyl-2-methyl-3-(3-(2-methylmorpholino)-3-oxoprop-1-en-1-yl)-5-oxo-4,5-dihydropyrazolo[1,5-a]pyrimidine-6-carboxamide] | 0.94
6 | Cc1nn2c(O)c(C(=O)NC3CC3)c(=O)n(CC(C)C)c2c1/C=C/C(=O)N1CCO[C@@H](C)C1 [Synthesis Example 680, (S,E)-N-Cyclopropyl-7-hydroxy-4-isobutyl-2-methyl-3-(3-(2-methylmorpholino)-3-oxoprop-1-en-1-yl)-5-oxo-4,5-dihydropyrazolo[1,5-a]pyrimidine-6-carboxamide] | 0.81
7 | Cc1nn2c(O)c(C(=O)NC3CC3)c(=O)n(CC(C)C)c2c1/C=C/C(=O)N(C)CC#N [Synthesis Example 681, (E)-3-(3-((Cyanomethyl)(methyl)amino)-3-oxoprop-1-en-1-yl)-N-cyclopropyl-7-hydroxy-4-isobutyl-2-methyl-5-oxo-4,5-dihydropyrazolo[1,5-a]pyrimidine-6-carboxamide] | 0.64

Same assay, conditions: sepiapterin absorbance, Table 41, read-out: concentration at 50% inhibition of human SPR (IC50)

Row | SMILES | IC50 [nM]
8 | COC[C@@H]1COCCN1C(=O)/C=C/c1c(C)nn2c(O)c(C(=O)NC3CC3)c(=O)n(CC(C)C)c12 [Synthesis Example 682, (R,E)-N-Cyclopropyl-7-hydroxy-4-isobutyl-3-(3-(3-(methoxymethyl)morpholino)-3-oxoprop-1-en-1-yl)-2-methyl-5-oxo-4,5-dihydropyrazolo[1,5-a]pyrimidine-6-carboxamide] | 0.85
9 | COC[C@H]1COCCN1C(=O)/C=C/c1c(C)nn2c(O)c(C(=O)NC3CC3)c(=O)n(CC(C)C)c12 [Synthesis Example 683, (S,E)-N-Cyclopropyl-7-hydroxy-4-isobutyl-3-(3-(3-(methoxymethyl)morpholino)-3-oxoprop-1-en-1-yl)-2-methyl-5-oxo-4,5-dihydropyrazolo[1,5-a]pyrimidine-6-carboxamide] | 0.82
10 | Cc1nn2c(O)c(C(=O)NC3CC3)c(=O)n(CC(C)C)c2c1/C=C/C(=O)N1CCC(C#N)CC1 [Synthesis Example 684, (E)-3-(3-(4-Cyanopiperidin-1-yl)-3-oxoprop-1-en-1-yl)-N-cyclopropyl-7-hydroxy-4-isobutyl-2-methyl-5-oxo-4,5-dihydropyrazolo[1,5-a]pyrimidine-6-carboxamide] | 0.89
11 | Cc1nn2c(O)c(C(=O)NC3CC3)c(=O)n(CC(C)C)c2c1/C=C/C(=O)N1CCN(CC(F)(F)F)CC1 [Synthesis Example 685, (E)-N-Cyclopropyl-7-hydroxy-4-isobutyl-2-methyl-5-oxo-3-(3-oxo-3-(4-(2,2,2-trifluoroethyl)piperazin-1-yl)prop-1-en-1-yl)-4,5-dihydropyrazolo[1,5-a]pyrimidine-6-carboxamide] | 1.23
12 | Cc1nn2c(O)c(C(=O)NC3CC3)c(=O)n(CC(C)C)c2c1/C=C/C(=O)N(C)CC(C)(C)O [Synthesis Example 686, (E)-N-Cyclopropyl-7-hydroxy-3-(3-((2-hydroxy-2-methylpropyl)(methyl)amino)-3-oxoprop-1-en-1-yl)-4-isobutyl-2-methyl-5-oxo-4,5-dihydropyrazolo[1,5-a]pyrimidine-6-carboxamide] | 1
13 | Cc1nn2c(O)c(C(=O)NC3CC3)c(=O)n(CC(C)C)c2c1/C=C/C(=O)N(C)CCC#N [Synthesis Example 687, (E)-3-(3-((2-Cyanoethyl)(methyl)amino)-3-oxoprop-1-en-1-yl)-N-cyclopropyl-7-hydroxy-4-isobutyl-2-methyl-5-oxo-4,5-dihydropyrazolo[1,5-a]pyrimidine-6-carboxamide] | 0.77
14 | Cc1nn2c(O)c(C(=O)NC3CC3)c(=O)n(CC(C)C)c2c1/C=C/C(=O)N1CC[C@H](C#N)C1 [Synthesis Example 688, (S,E)-3-(3-(3-Cyanopyrrolidin-1-yl)-3-oxoprop-1-en-1-yl)-N-cyclopropyl-7-hydroxy-4-isobutyl-2-methyl-5-oxo-4,5-dihydropyrazolo[1,5-a]pyrimidine-6-carboxamide] | 0.91
15 | Cc1nn2c(O)c(C(=O)NC3CC3)c(=O)n(CC(C)C)c2c1/C=C/C(=O)N1CC[C@@H](C#N)C1 [Synthesis Example 689, (R,E)-3-(3-(3-Cyanopyrrolidin-1-yl)-3-oxoprop-1-en-1-yl)-N-cyclopropyl-7-hydroxy-4-isobutyl-2-methyl-5-oxo-4,5-dihydropyrazolo[1,5-a]pyrimidine-6-carboxamide] | 0.95
16 | Cc1nn2c(O)c(C(=O)NC3CC3)c(=O)n(CC(C)(C)C)c2c1/C=C/C(=O)N(C)CC#N [Synthesis Example 690, (E)-3-(3-((Cyanomethyl)(methyl)amino)-3-oxoprop-1-en-1-yl)-N-cyclopropyl-7-hydroxy-2-methyl-4-neopentyl-5-oxo-4,5-dihydropyrazolo[1,5-a]pyrimidine-6-carboxamide] | 1.46
17 | CC[C@H]1COCCN1C(=O)/C=C/c1c(C)nn2c(O)c(C(=O)NC3CC3)c(=O)n(CC(C)(C)C)c12 [Synthesis Example 691, (S,E)-N-Cyclopropyl-3-(3-(3-ethylmorpholino)-3-oxoprop-1-en-1-yl)-7-hydroxy-2-methyl-4-neopentyl-5-oxo-4,5-dihydropyrazolo[1,5-a]pyrimidine-6-carboxamide] | 0.82
18 | Cc1nn2c(O)c(C(=O)NC3CC3)c(=O)n(CC(C)(C)C)c2c1/C=C/C(=O)N1CCN(C2CC(F)(F)C2)CC1 [Synthesis Example 692, (E)-N-Cyclopropyl-3-(3-(4-(3,3-difluorocyclobutyl)piperazin-1-yl)-3-oxoprop-1-en-1-yl)-7-hydroxy-2-methyl-4-neopentyl-5-oxo-4,5-dihydropyrazolo[1,5-a]pyrimidine-6-carboxamide] | 0.8
19 | COC[C@@H]1COCCN1C(=O)/C=C/c1c(C)nn2c(O)c(C(=O)NC3CC3)c(=O)n(CC(C)(C)C)c12 [Synthesis Example 693, (R,E)-N-Cyclopropyl-7-hydroxy-3-(3-(3-(methoxymethyl)morpholino)-3-oxoprop-1-en-1-yl)-2-methyl-4-neopentyl-5-oxo-4,5-dihydropyrazolo[1,5-a]pyrimidine-6-carboxamide] | 0.71
20 | COC[C@H]1COCCN1C(=O)/C=C/c1c(C)nn2c(O)c(C(=O)NC3CC3)c(=O)n(CC(C)(C)C)c12 [Synthesis Example 694, (S,E)-N-Cyclopropyl-7-hydroxy-3-(3-(3-(methoxymethyl)morpholino)-3-oxoprop-1-en-1-yl)-2-methyl-4-neopentyl-5-oxo-4,5-dihydropyrazolo[1,5-a]pyrimidine-6-carboxamide] | 0.85
21 | Cc1nn2c(O)c(C(=O)NC3CC3)c(=O)n(CC(C)C)c2c1/C=C/C(=O)N1CCOc2ccncc21 [Synthesis Example 695, (E)-N-Cyclopropyl-3-(3-(2,3-dihydro-4H-pyrido[4,3-b][1,4]oxazin-4-yl)-3-oxoprop-1-en-1-yl)-7-hydroxy-4-isobutyl-2-methyl-5-oxo-4,5-dihydropyrazolo[1,5-a]pyrimidine-6-carboxamide] | 1.3
22 | Cc1nn2c(O)c(C(=O)NC3CC3)c(=O)n(CC(C)C)c2c1/C=C/C(=O)N1CCOc2ccccc21 [Synthesis Example 696, (E)-N-Cyclopropyl-3-(3-(2,3-dihydro-4H-benz[b][1,4]oxazin-4-yl)-3-oxoprop-1-en-1-yl)-7-hydroxy-4-isobutyl-2-methyl-5-oxo-4,5-dihydropyrazolo[1,5-a]pyrimidine-6-carboxamide] | 1.71
23 | Cc1nn2c(O)c(C(=O)NC3CC3)c(=O)n(CC(C)C)c2c1/C=C/C(=O)N1CCN(C2CC(F)(F)C2)C[C@H]1C [Synthesis Example 697, (R,E)-N-Cyclopropyl-3-(3-(4-(3,3-difluorocyclobutyl)-2-methylpiperazin-1-yl)-3-oxoprop-1-en-1-yl)-7-hydroxy-4-isobutyl-2-methyl-5-oxo-4,5-dihydropyrazolo[1,5-a]pyrimidine-6-carboxamide] | 1.22

Reference: patent publication US20240092784A1, “CONDENSED HETEROCYCLIC COMPOUND” (NISSAN CHEMICAL CORPORATION, priority 2020, published 2024)
